Values quoted from earlier work, collected in US10966913B2, “Cosmetic use of spiculisporic acid as a deodorant active agent” (L'OREAL, priority 2014, dated 2021).

Settings: room temperature

Question: With CCCCCCCCCCC(C(=O)O)C1(C(=O)O)CCC(=O)O1 (stereo not drawn) [spiculisporic acid, 4,5-dicarboxy-4-pentadecanolide] as the compound, how does the solubility in ethanol read?
Answer: soluble

Question: What about the “solubility in fatty substances” value of the same compound?
Answer: insoluble

Question: What about the solubility in water of the same compound?
Answer: insoluble
